Laboratory results from patent publication US12281225B2, “Process for preparing stable polymers containing vinylimidazole” (BASF SE, priority 2018, dated 2025).

Assays:
Format in all cases: physicochemical
[1] = Iodine color number according to DIN 6162:2014-09
[2] = Analysis of active substance: preservative concentration before and after storage in VI-containing polymer solution; conditions: for active-substance concentration, 0 d, RT: before storage; for active-substance concentration, 14 d, 40° C.: storage 14 d at 40° C.; for active-substance concentration, 28 d, 40° C.: storage 28 d at 40° C.; for active-substance concentration, 60 d 40° C.: storage 60 d at 40° C.
Procedure: Stability of Preservatives in VI-Containing Polymers:
The following stabilizers for VI-containing polymers (here: aqueous solution of a copolymer of vinylpyrrolidone and vinylimidazole) were tested.
MIT, BIT, CMIT, OIT, DCOIT and iodopropynyl butyl carbamate were determined by RP chromatography with UV detection after dilution of the sample to be tested. An RP18 column was used for this purpose, with an eluent composed of an acid-methanol mixture under isocratic conditions.

[3] = Physical stability; visual assessment (color, turbidity, phase separation); design: key: ++: no discernible change with respect to color, turbidity or phase separation; +: marginal change in color number, somewhat increased Tyndall effect but no turbidity; 0: easily discernible increase in color number and moderate turbidity−no phase separation; −: turbidity and change in color number readily discernible by visual assessment; −−: strong color change with strong turbidity and incipient phase separation
Description: Physical stability; visual assessment according to:
++=no discernible change with respect to color, turbidity or phase separation; +=marginal change in color number, somewhat increased Tyndall effect but no turbidity; 0=easily discernible increase in color number and moderate turbidity−no phase separation; − turbidity and change in color number readily discernible by visual assessment; −− strong color change with strong turbidity and incipient phase separation.
Before storage, all batches could be rated ++ (no turbidity or phase separation; no influence of the biocide on the color number of the product).

[4] = Polymer P5 (HP56) with stabilizer

CCCCCCCCCC[N+](C)(C)CCCCCCCCCC.[Cl-] [DDAC, didecyldimethylammonium chloride]
Iodine color number, 60 d 40° C. ([1]; Polymer P1 with stabilizer): 2.9
Iodine color number, start ([1]; Polymer P1 with stabilizer): 2.9
Iodine color number, 60 d 40° C. ([1]; Polymer P2 with stabilizer): 3.0
Iodine color number, start ([1]; Polymer P2 with stabilizer): 2.9
Iodine color number, 60 d 40° C. ([1]; Polymer P3 with stabilizer): 3.3
Iodine color number, start ([1]; Polymer P3 with stabilizer): 3.3
Iodine color number, 60 d 40° C. ([1]; Polymer P4 with stabilizer): 3.3
Iodine color number, start ([1]; Polymer P4 with stabilizer): 3.3
Iodine color number, 60 d 40° C. [1, 4]: 3.3
Iodine color number, start [1, 4]: 3.3
Iodine color number, 60 d 40° C. ([1]; Polymer P6 with stabilizer): 3.3
Iodine color number, start ([1]; Polymer P6 with stabilizer): 3.3
Iodine color number, 60 d 40° C. ([1]; Polymer P7 with stabilizer): 3.3
Iodine color number, start ([1]; Polymer P7 with stabilizer): 3.3
Iodine color number, 60 d 40° C. ([1]; Polymer P8 with stabilizer): 3.3
Iodine color number, start ([1]; Polymer P8 with stabilizer): 3.3
Iodine color number, 60 d 40° C. ([1]; Polymer P9 with stabilizer): 3.9
Iodine color number, start ([1]; Polymer P9 with stabilizer): 3.8
active-substance concentration, 0 d, RT ([2]; in Polymer P1): 950 ppm
active-substance concentration, 14 d, 40° C. ([2]; in Polymer P1): 950 ppm
active-substance concentration, 28 d, 40° C. ([2]; in Polymer P1): 940 ppm
active-substance concentration, 60 d 40° C. ([2]; in Polymer P1): 940 ppm
active-substance concentration, 0 d, RT ([2]; in Polymer P2): 950 ppm
active-substance concentration, 14 d, 40° C. ([2]; in Polymer P2): 950 ppm
active-substance concentration, 28 d, 40° C. ([2]; in Polymer P2): 940 ppm
active-substance concentration, 60 d 40° C. ([2]; in Polymer P2): 940 ppm
active-substance concentration, 0 d, RT ([2]; in Polymer P3): 950 ppm
active-substance concentration, 14 d, 40° C. ([2]; in Polymer P3): 950 ppm
active-substance concentration, 28 d, 40° C. ([2]; in Polymer P3): 940 ppm
active-substance concentration, 60 d 40° C. ([2]; in Polymer P3): 930 ppm
active-substance concentration, 0 d, RT ([2]; in Polymer P4): 950 ppm
active-substance concentration, 14 d, 40° C. ([2]; in Polymer P4): 950 ppm
active-substance concentration, 28 d, 40° C. ([2]; in Polymer P4): 942 ppm
active-substance concentration, 60 d 40° C. ([2]; in Polymer P4): 940 ppm
active-substance concentration, 0 d, RT ([2]; in Polymer P5 (HP56)): 950 ppm
active-substance concentration, 14 d, 40° C. ([2]; in Polymer P5 (HP56)): 950 ppm
active-substance concentration, 28 d, 40° C. ([2]; in Polymer P5 (HP56)): 940 ppm
active-substance concentration, 60 d 40° C. ([2]; in Polymer P5 (HP56)): 940 ppm
active-substance concentration, 0 d, RT ([2]; in Polymer P6): 950 ppm
active-substance concentration, 14 d, 40° C. ([2]; in Polymer P6): 950 ppm
active-substance concentration, 28 d, 40° C. ([2]; in Polymer P6): 950 ppm
active-substance concentration, 60 d 40° C. ([2]; in Polymer P6): 943 ppm
active-substance concentration, 0 d, RT ([2]; in Polymer P7): 950 ppm
active-substance concentration, 14 d, 40° C. ([2]; in Polymer P7): 947 ppm
active-substance concentration, 28 d, 40° C. ([2]; in Polymer P7): 945 ppm
active-substance concentration, 60 d 40° C. ([2]; in Polymer P7): 938 ppm
active-substance concentration, 0 d, RT ([2]; in Polymer P8): 950 ppm
active-substance concentration, 14 d, 40° C. ([2]; in Polymer P8): 950 ppm
active-substance concentration, 28 d, 40° C. ([2]; in Polymer P8): 940 ppm
active-substance concentration, 60 d 40° C. ([2]; in Polymer P8): 940 ppm
active-substance concentration, 0 d, RT ([2]; in Polymer P9): 950 ppm
active-substance concentration, 14 d, 40° C. ([2]; in Polymer P9): 950 ppm
active-substance concentration, 28 d, 40° C. ([2]; in Polymer P9): 944 ppm
active-substance concentration, 60 d 40° C. ([2]; in Polymer P9): 940 ppm
Physical stability, 60 d 40° C.* ([3]; Polymer P1 with stabilizer): ++
Physical stability, 60 d 40° C.* ([3]; Polymer P2 with stabilizer): ++
Physical stability, 60 d 40° C.* ([3]; Polymer P3 with stabilizer): ++
Physical stability, 60 d 40° C.* ([3]; Polymer P4 with stabilizer): ++
Physical stability, 60 d 40° C.* [3, 4]: ++
Physical stability, 60 d 40° C.* ([3]; Polymer P6 with stabilizer): ++
Physical stability, 60 d 40° C.* ([3]; Polymer P7 with stabilizer): ++
Physical stability, 60 d 40° C.* ([3]; Polymer P8 with stabilizer): ++
Physical stability, 60 d 40° C.* ([3]; Polymer P9 with stabilizer): ++
